Data reported in paper PMC6245188, “Isolation and Characterization of Phenolic Compounds from the Leaves of Salix matsudana” (Molecules, 2008).
Read-outs that look alike come from different tables or passages of the source.

Columns and labels:
[1] = molecular target: T1, COX-1 (Ovis aries, UniProt P05979); assay: Effect on cyclooxygenase-1 (PGE2 production from 14C-arachidonic acid, HPLC radioactivity detection); format: biochemical
T1 construct: purchased Cayman Chemical (Michigan, US)
T1 sequence (P05979 25-600): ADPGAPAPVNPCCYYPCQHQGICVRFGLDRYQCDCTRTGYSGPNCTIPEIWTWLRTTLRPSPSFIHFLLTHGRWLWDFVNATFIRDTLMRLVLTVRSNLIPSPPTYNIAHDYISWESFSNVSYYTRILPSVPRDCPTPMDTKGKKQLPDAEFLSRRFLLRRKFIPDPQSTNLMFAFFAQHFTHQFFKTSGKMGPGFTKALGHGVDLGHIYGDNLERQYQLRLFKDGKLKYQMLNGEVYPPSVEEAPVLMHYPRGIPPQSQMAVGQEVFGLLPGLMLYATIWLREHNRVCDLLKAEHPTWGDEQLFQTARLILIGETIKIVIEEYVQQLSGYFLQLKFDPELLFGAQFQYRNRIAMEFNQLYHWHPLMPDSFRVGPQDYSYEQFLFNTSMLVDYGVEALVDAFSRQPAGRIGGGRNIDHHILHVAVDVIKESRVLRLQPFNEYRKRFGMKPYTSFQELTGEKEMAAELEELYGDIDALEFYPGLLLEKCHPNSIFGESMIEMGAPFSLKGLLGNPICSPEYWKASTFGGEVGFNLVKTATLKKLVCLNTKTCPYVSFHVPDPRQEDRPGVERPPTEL
Description: (§1) COX-1 and COX-2 were purchased from Cayman Chemical (Michigan, US). The ^14C-labeled arachidonic acid (>200 µCi, NEN) was purchased from New England Nuclear Co. (Boston, US). Other chemicals and reagents were purchased from the Chinese Chemical Group (Beijing, P.R. China).
(§2) The effect of the tested compounds on cyclooxygenase-1 and -2 (COX-1 and -2) was determined by measuring PGE2 production. […] 1-^14C Arachidonic acid (10 µL) was added to start the reaction. The mixture was incubated for 30 min at 37 °C, then, the reaction was terminated by adding the reaction mixture (20 µL) to 30 µM indomethacin (200 µL). Arachidonic acid and its radio-labeled metabolites were separated and determined by reversed-phase HPLC using a Berthold radioactivity monitor. Inhibition refers to reduction of PGE2 formation, in comparison to a blank run without inhibitor. The results are means of three independent experiments.

[2] = molecular target: T2, COX-2 (Homo sapiens, UniProt P35354); assay: Effect on cyclooxygenase-2 (PGE2 production from 14C-arachidonic acid, HPLC radioactivity detection); format: biochemical; conditions: for IC50 / IC50 of COX-2: means of three determinations, 30 min at 37 °C, Tris-HCl pH 8.0, I.A. = Inactive; for inhibitory effect on COX-2 (in words): qualitative statement
T2 construct: purchased Cayman Chemical (Michigan, US)
T2 sequence (P35354 18-604): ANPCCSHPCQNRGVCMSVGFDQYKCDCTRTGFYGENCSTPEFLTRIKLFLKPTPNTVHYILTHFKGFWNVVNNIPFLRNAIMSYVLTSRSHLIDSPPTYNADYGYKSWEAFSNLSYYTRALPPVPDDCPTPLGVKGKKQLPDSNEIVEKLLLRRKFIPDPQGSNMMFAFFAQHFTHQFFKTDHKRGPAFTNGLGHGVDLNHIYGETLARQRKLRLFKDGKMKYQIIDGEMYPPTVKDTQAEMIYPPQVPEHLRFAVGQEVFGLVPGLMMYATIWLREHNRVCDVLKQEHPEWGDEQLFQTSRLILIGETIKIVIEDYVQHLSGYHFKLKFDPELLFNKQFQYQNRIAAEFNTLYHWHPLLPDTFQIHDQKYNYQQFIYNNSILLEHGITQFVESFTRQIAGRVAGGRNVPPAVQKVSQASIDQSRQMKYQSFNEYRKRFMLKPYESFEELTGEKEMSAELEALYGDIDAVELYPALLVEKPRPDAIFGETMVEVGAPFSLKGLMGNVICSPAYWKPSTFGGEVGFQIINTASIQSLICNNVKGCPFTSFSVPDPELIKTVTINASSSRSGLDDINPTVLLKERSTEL
Description: as §1, §2

[3] = means of three determinations, 30 min at 37 °C, Tris-HCl pH 8.0, I.A. = Inactive, read-out: IC50 of COX-1
[4] = means of three determinations, 30 min at 37 °C, Tris-HCl pH 8.0, I.A. = Inactive

SMILES | IC50 [1, 3] [µM] | IC50 [2] [µM] | inhibitory effect on COX-2 (in words) [2] | IC50 of COX-2 [2] | IC50 [1] [µM] | IC50 of COX-1 [1, 4]
O=c1c(O[C@@H]2O[C@H](CO)[C@@H](O)[C@H](O)[C@H]2O)c(-c2ccc(O)c(O)c2)oc2cc(O)cc(O)c12 [Compound 3, isoquercitrin] | – | – | – | – | 103 | –
COc1ccc2c(=O)cc(-c3ccccc3)oc2c1 [Compound 4, 7-methoxyflavone] | 99.1 | 169 | – | – | – | –
O=c1cc(-c2ccc(O)cc2)oc2cc(O)ccc12 [Compound 6, 4',7-dihydroxyflavone] | – | 58.8 | potent inhibitory effect | – | – | I.A.
COc1cc(O)cc(OC)c1OC1OC(CO)C(O)C(O)C1O (stereo not drawn) [Compound 7, leonuriside A] | 195 | 200 | – | – | – | –
CC(=O)c1ccc(OC2OC(CO)C(O)C(O)C2O)cc1 (stereo not drawn) [Compound 8, piceoside] | 217 | – | – | I.A. | – | –

Second part, led by results:

IC50 [1, 3] [µM] | IC50 [2] [µM] | inhibitory effect on COX-2 (in words) [2] | IC50 of COX-2 [2] | IC50 [1] [µM] | SMILES | IC50 of COX-1 [1, 4]
153 | 27.3 | potent inhibitory effect | – | – | CC1(C)C=Cc2c(cc(O)c3c(=O)c(OC4OC(CO)C(O)C(O)C4O)c(-c4ccc(O)c(O)c4)oc23)O1 [Compound 1, 7,8-(2'', 2''-dimethylpyrano)-5, 3', 4'-trihydroxy-flavone-3-O-β-D-glucoside] | –
– | – | – | I.A. | – | O=c1cc(-c2ccc(O)c(O)c2)oc2cc(O)cc(O)c12 [Compound 2, luteolin] | I.A.^b
92.3 | 39.1 | potent inhibitory effect | – | – | O=c1cc(-c2ccc(O)c(O)c2)oc2cc(O[C@@H]3O[C@H](CO)[C@@H](O)[C@H](O)[C@H]3O)cc(O)c12 [Compound 5, luteolin 7-O-glucoside] | –
